Laboratory results taken from PubChem BioAssay AID248 (DTP/NCI, 2004).
Toxic doses and inconclusive results are not listed. Cut-off read from the data, not from the text of the source: active = T/C of 150% or more; inactive = T/C below 125%.

Test system: L1210 leukemia ip in BDF1 mice, survival T/C
Assay: NCI In Vivo Anticancer Drug Screen. Data for tumor model L1210 Leukemia (intraperitoneal) in B6D2F1 (BDF1) mice
Details: endpoint: mean survival time, higher = longer survival
Procedure, shortened: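 Survival endpoint. Drug-treated group vs vehicle group, expressed as T divided by C. Tumor passaged by transplantation.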

[1] = dose: 100.0 mg/kg/injection, schedule: Q01DX001 (ip), vehicle: saline
[2] = dose: 200.0 mg/kg/injection, schedule: Q01DX001 (ip), vehicle: saline
[3] = dose: 400.0 mg/kg/injection, schedule: Q01DX001 (ip), vehicle: saline

Measured: T/C

NC(=O)N/N=C1/CC2C3C=CC4C3CC2C14 (stereo not drawn)
inactive: dose: 37.5 mg/kg/injection, schedule: Q04DX002 (ip), vehicle: saline with Tween-80 117 % of control | dose: 75.0 mg/kg/injection, schedule: Q04DX002 (ip), vehicle: saline with Tween-80 102 % of control | dose: 150.0 mg/kg/injection, schedule: Q04DX002 (ip), vehicle: saline with Tween-80 106 % of control | dose: 300.0 mg/kg/injection, schedule: Q04DX002 (ip), vehicle: saline with Tween-80 98 % of control

O=C1C(=C(c2ccccc2)N2CCCCC2)C(=O)c2ccccc21
inactive: [1] 104 % of control | [2] 109 % of control | [3] 106 % of control

Cc1ccc(C)c(C2NC(=O)c3ccccc3N2)c1 (stereo not drawn)
inactive: dose: 100.0 mg/kg/injection, schedule: Q01DX009 (ip), vehicle: Klucel (hydroxypropylcellulose) (HPC) 102 % of control | dose: 100.0 mg/kg/injection, schedule: Q04DX003 (ip), vehicle: Klucel (hydroxypropylcellulose) (HPC) 106 % of control | dose: 200.0 mg/kg/injection, schedule: Q01DX009 (ip), vehicle: Klucel (hydroxypropylcellulose) (HPC) 106 % of control | dose: 200.0 mg/kg/injection, schedule: Q04DX003 (ip), vehicle: Klucel (hydroxypropylcellulose) (HPC) 90 % of control | dose: 400.0 mg/kg/injection, schedule: Q01DX009 (ip), vehicle: Klucel (hydroxypropylcellulose) (HPC) 103 % of control | dose: 400.0 mg/kg/injection, schedule: Q04DX003 (ip), vehicle: Klucel (hydroxypropylcellulose) (HPC) 93 % of control

CC(=O)O[C@H]1CC[C@]2(C)C3=C([C@@H](OO)C[C@H]2C1(C)C)[C@]1(C)CC[C@H]([C@H](C)CCCC(C)C)[C@@]1(C)CC3
inactive: dose: 100.0 mg/kg/injection, schedule: Q01DX001 (ip), vehicle: other 97 % of control | dose: 200.0 mg/kg/injection, schedule: Q01DX001 (ip), vehicle: other 95 % of control | dose: 400.0 mg/kg/injection, schedule: Q01DX001 (ip), vehicle: other 95 % of control

CC(C)(C)OC(=O)NCCCCC(NC(=O)OCc1ccccc1)C(=O)O (stereo not drawn)
inactive: dose: 25.0 mg/kg/injection, schedule: Q04DX002 (ip), vehicle: saline with Tween-80 90 % of control | dose: 50.0 mg/kg/injection, schedule: Q04DX002 (ip), vehicle: saline with Tween-80 97 % of control | dose: 100.0 mg/kg/injection, schedule: Q01DX009 (ip), vehicle: saline with Tween-80 89 % of control | dose: 100.0 mg/kg/injection, schedule: Q04DX002 (ip), vehicle: saline with Tween-80 101 % of control

C1CC2CCCC3C4CCCC5CCCC(C(C1)C23)C54 (stereo not drawn)
inactive: [1] 94 % of control | [2] 100 % of control | [3] 97 % of control
